{"source": "the supplement of paper PMC10307832"}
{"compound": "Cc1ccc(Nc2nccc(N(C)c3ccc4c(C)n(C)nc4c3)n2)cc1S(N)(=O)=O [Pazopanib] + COc1cccc2cc(-c3nc([C@H]4CC[C@H](C(=O)O)CC4)n4ncnc(N)c34)[nH]c12 [OSI-027] (partner 0.5 µM)", "test": "relative viability (nuclei count vs DMSO), 5 days (fraction); higher = more cells survive", "conditions": "first compound 0.01 µM", "in_short": "(§1)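 Lung cancer cell lines in 1536-well plates were dosed by pin tool the day after seeding, either with one drug alone or with a fixed anchor-drug dose plus five library-drug doses (not always all listed) in √10 steps. After 5 days, cells were fixed and their nuclei stained in one step (final 0.05% Triton X-100, 1% formaldehyde, 1 ug/ml Hoechst), then counted on 4× images. Relative viability is the nuclei count in treated wells divided by that in vehicle wells. Values are medians of duplicate plates.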"}
{"cell line": "NCI-H2228", "relative viability": 0.518}
{"cell line": "NCI-H1355", "relative viability": 0.37}
{"cell line": "NCI-H322M", "relative viability": 0.531}
{"cell line": "NCI-H1437", "relative viability": 0.901}
{"cell line": "NCI-H1755", "relative viability": 0.693}
{"cell line": "NCI-H2023", "relative viability": 0.417}
{"cell line": "HCC-15", "relative viability": 0.622}
{"cell line": "PC-3 [JPC-3]", "relative viability": 0.929}
{"cell line": "EKVX", "relative viability": 0.664}
{"cell line": "LC-2-ad", "relative viability": 0.865}
{"cell line": "NCI-H1563", "relative viability": 0.716}
{"cell line": "NCI-H1975", "relative viability": 0.677}
{"cell line": "SK-LU-1", "relative viability": 0.452}
{"cell line": "ABC-1", "relative viability": 0.367}
{"cell line": "SK-MES-1", "relative viability": 0.643}
{"cell line": "NCI-H661", "relative viability": 0.669}
{"cell line": "RERF-LC-KJ", "relative viability": 0.677}
{"compound": "Cc1ccc(Nc2nccc(N(C)c3ccc4c(C)n(C)nc4c3)n2)cc1S(N)(=O)=O [Pazopanib] + COc1cccc2cc(-c3nc([C@H]4CC[C@H](C(=O)O)CC4)n4ncnc(N)c34)[nH]c12 [OSI-027] (partner 0.5 µM)", "test": "relative viability (nuclei count vs DMSO), 5 days (fraction); higher = more cells survive", "conditions": "first compound 0.03162 µM", "in_short": "as §1"}
{"cell line": "A-427", "relative viability": 0.481}
{"cell line": "NCI-H460", "relative viability": 0.912}
{"cell line": "NCI-H727", "relative viability": 0.561}
{"cell line": "NCI-H1734", "relative viability": 0.555}
{"cell line": "NCI-H520", "relative viability": 0.268}
{"cell line": "NCI-H2405", "relative viability": 0.67}
{"cell line": "SW 1573", "relative viability": 0.728}
{"cell line": "201T", "relative viability": 0.575}
{"cell line": "NCI-H1915", "relative viability": 0.659}
{"cell line": "HCC-827", "relative viability": 0.752}
{"cell line": "LXF-289", "relative viability": 0.774}
{"cell line": "NCI-H23", "relative viability": 0.617}
{"cell line": "NCI-H650", "relative viability": 0.523}
{"cell line": "CAL-12T", "relative viability": 0.943}
{"cell line": "NCI-H1651", "relative viability": 0.742}
{"cell line": "EPLC-272H", "relative viability": 0.253}
{"cell line": "NCI-H2228", "relative viability": 0.495}
{"cell line": "NCI-H1792", "relative viability": 0.714}
{"cell line": "NCI-H1355", "relative viability": 0.441}
{"cell line": "NCI-H322M", "relative viability": 0.646}
{"cell line": "NCI-H1437", "relative viability": 0.879}
{"cell line": "NCI-H1755", "relative viability": 0.653}
{"cell line": "NCI-H2023", "relative viability": 0.425}
{"cell line": "HCC-15", "relative viability": 0.825}
{"cell line": "NCI-H1944", "relative viability": 0.422}
{"cell line": "PC-3 [JPC-3]", "relative viability": 0.806}
{"cell line": "EKVX", "relative viability": 0.741}
{"cell line": "LC-2-ad", "relative viability": 1}
{"cell line": "NCI-H1563", "relative viability": 0.802}
{"cell line": "NCI-H1975", "relative viability": 0.723}
{"cell line": "SK-LU-1", "relative viability": 0.345}
{"cell line": "ABC-1", "relative viability": 0.572}
{"cell line": "SK-MES-1", "relative viability": 0.629}
{"cell line": "NCI-H661", "relative viability": 0.784}
{"cell line": "RERF-LC-KJ", "relative viability": 0.605}
{"compound": "Cc1ccc(Nc2nccc(N(C)c3ccc4c(C)n(C)nc4c3)n2)cc1S(N)(=O)=O [Pazopanib] + COc1cccc2cc(-c3nc([C@H]4CC[C@H](C(=O)O)CC4)n4ncnc(N)c34)[nH]c12 [OSI-027] (partner 0.5 µM)", "test": "relative viability (nuclei count vs DMSO), 5 days (fraction); higher = more cells survive", "conditions": "first compound 0.1 µM", "in_short": "as §1"}
{"cell line": "A-427", "relative viability": 0.462}
{"cell line": "NCI-H460", "relative viability": 0.645}
{"cell line": "NCI-H727", "relative viability": 0.545}
{"cell line": "NCI-H1734", "relative viability": 0.558}
{"cell line": "NCI-H520", "relative viability": 0.259}
{"cell line": "NCI-H2405", "relative viability": 0.72}
{"cell line": "SW 1573", "relative viability": 0.684}
{"cell line": "201T", "relative viability": 0.799}
{"cell line": "NCI-H1915", "relative viability": 0.626}
{"cell line": "HCC-827", "relative viability": 0.784}
{"cell line": "LXF-289", "relative viability": 0.805}
{"cell line": "NCI-H23", "relative viability": 0.648}
{"cell line": "NCI-H650", "relative viability": 0.517}
{"cell line": "CAL-12T", "relative viability": 0.609}
{"cell line": "NCI-H1651", "relative viability": 0.728}
{"cell line": "EPLC-272H", "relative viability": 0.337}
{"cell line": "NCI-H2228", "relative viability": 0.532}
{"cell line": "NCI-H1792", "relative viability": 0.702}
{"cell line": "NCI-H1355", "relative viability": 0.396}
{"cell line": "NCI-H322M", "relative viability": 0.533}
{"cell line": "NCI-H1437", "relative viability": 0.998}
{"cell line": "NCI-H1755", "relative viability": 0.671}
{"cell line": "NCI-H2023", "relative viability": 0.35}
{"cell line": "HCC-15", "relative viability": 0.7}
{"cell line": "NCI-H1944", "relative viability": 0.46}
{"cell line": "PC-3 [JPC-3]", "relative viability": 0.747}
{"cell line": "EKVX", "relative viability": 0.642}
{"cell line": "LC-2-ad", "relative viability": 0.84}
{"cell line": "NCI-H1563", "relative viability": 0.788}
{"cell line": "NCI-H1975", "relative viability": 0.861}
{"cell line": "SK-LU-1", "relative viability": 0.385}
{"cell line": "SK-MES-1", "relative viability": 0.654}
{"cell line": "NCI-H661", "relative viability": 0.745}
{"cell line": "RERF-LC-KJ", "relative viability": 0.605}
{"compound": "Cc1ccc(Nc2nccc(N(C)c3ccc4c(C)n(C)nc4c3)n2)cc1S(N)(=O)=O [Pazopanib] + COc1cccc2cc(-c3nc([C@H]4CC[C@H](C(=O)O)CC4)n4ncnc(N)c34)[nH]c12 [OSI-027] (partner 0.5 µM)", "test": "relative viability (nuclei count vs DMSO), 5 days (fraction); higher = more cells survive", "conditions": "first compound 0.3162 µM", "in_short": "as §1"}
{"cell line": "A-427", "relative viability": 0.516}
{"cell line": "NCI-H460", "relative viability": 0.665}
{"cell line": "NCI-H727", "relative viability": 0.505}
{"cell line": "NCI-H1734", "relative viability": 0.567}
{"cell line": "NCI-H520", "relative viability": 0.301}
{"cell line": "NCI-H2405", "relative viability": 0.656}
{"cell line": "SW 1573", "relative viability": 0.715}
{"cell line": "201T", "relative viability": 0.742}
{"cell line": "NCI-H1915", "relative viability": 0.588}
{"cell line": "HCC-827", "relative viability": 0.801}
{"cell line": "LXF-289", "relative viability": 0.77}
{"cell line": "NCI-H23", "relative viability": 0.643}
{"cell line": "NCI-H650", "relative viability": 0.544}
{"cell line": "CAL-12T", "relative viability": 0.591}
{"cell line": "NCI-H1651", "relative viability": 0.715}
{"cell line": "EPLC-272H", "relative viability": 0.336}
{"cell line": "NCI-H2228", "relative viability": 0.507}
{"cell line": "NCI-H1792", "relative viability": 0.746}
{"cell line": "NCI-H1355", "relative viability": 0.423}
{"cell line": "NCI-H322M", "relative viability": 0.636}
{"cell line": "NCI-H1437", "relative viability": 0.907}
{"cell line": "NCI-H1755", "relative viability": 0.678}
{"cell line": "NCI-H2023", "relative viability": 0.42}
{"cell line": "HCC-15", "relative viability": 0.669}
{"cell line": "NCI-H1944", "relative viability": 0.441}
{"cell line": "PC-3 [JPC-3]", "relative viability": 0.756}
{"cell line": "EKVX", "relative viability": 0.691}
{"cell line": "LC-2-ad", "relative viability": 0.808}
{"cell line": "NCI-H1563", "relative viability": 0.802}
{"cell line": "NCI-H1975", "relative viability": 0.735}
{"cell line": "SK-LU-1", "relative viability": 0.395}
{"cell line": "ABC-1", "relative viability": 0.668}
{"cell line": "SK-MES-1", "relative viability": 0.585}
{"cell line": "NCI-H661", "relative viability": 0.689}
{"cell line": "RERF-LC-KJ", "relative viability": 0.515}
{"compound": "Cc1ccc(Nc2nccc(N(C)c3ccc4c(C)n(C)nc4c3)n2)cc1S(N)(=O)=O [Pazopanib] + COc1cccc2cc(-c3nc([C@H]4CC[C@H](C(=O)O)CC4)n4ncnc(N)c34)[nH]c12 [OSI-027] (partner 0.5 µM)", "test": "relative viability (nuclei count vs DMSO), 5 days (fraction); higher = more cells survive", "conditions": "first compound 1 µM", "in_short": "as §1"}
{"cell line": "A-427", "relative viability": 0.448}
{"cell line": "NCI-H460", "relative viability": 0.725}
{"cell line": "NCI-H727", "relative viability": 0.574}
{"cell line": "NCI-H1734", "relative viability": 0.605}
{"cell line": "NCI-H520", "relative viability": 0.262}
{"cell line": "NCI-H2405", "relative viability": 0.736}
{"cell line": "SW 1573", "relative viability": 0.765}
{"cell line": "201T", "relative viability": 0.747}
{"cell line": "NCI-H1915", "relative viability": 0.64}
{"cell line": "HCC-827", "relative viability": 0.731}
{"cell line": "LXF-289", "relative viability": 0.843}
{"cell line": "NCI-H23", "relative viability": 0.637}
{"cell line": "NCI-H650", "relative viability": 0.482}
{"cell line": "CAL-12T", "relative viability": 0.684}
{"cell line": "NCI-H1651", "relative viability": 0.871}
{"cell line": "EPLC-272H", "relative viability": 0.277}
{"cell line": "NCI-H2228", "relative viability": 0.655}
{"cell line": "NCI-H1792", "relative viability": 0.673}
{"cell line": "NCI-H1355", "relative viability": 0.477}
{"cell line": "NCI-H322M", "relative viability": 0.607}
{"cell line": "NCI-H1437", "relative viability": 1.05}
{"cell line": "NCI-H1755", "relative viability": 0.632}
{"cell line": "NCI-H2023", "relative viability": 0.536}
{"cell line": "HCC-15", "relative viability": 0.815}
{"cell line": "NCI-H1944", "relative viability": 0.48}
{"cell line": "PC-3 [JPC-3]", "relative viability": 0.661}
{"cell line": "EKVX", "relative viability": 0.788}
